We go through 29 molecules from patent US6552022B1, “Benzamide derivatives and their use as ApoB-100 secretion inhibitors” (SmithKline Beecham Corporation, priority 1998, dated 2003).

For one data set, the system named is apoB-100. The data set can be described thus: Inhibition of apoB-100 secretion by primary human hepatocytes (35S-methionine labelling, SDS PAGE, Phosphorimager). The conditions noted are these: 8 hours incubation, tested from 1 μM to 1.6 nM, secretion of radiolabeled apoB-100, untreated cells as controls. The class given is cell-based. The method, then:
The ability of the compounds of the invention to inhibit the production of apoB-100 by human hepatocytes in vitro is determined using primary human hepatocytes as a model system. The specificity of the compounds of the invention is established by comparing the effects on apoB-100, apoprotein A-1, and fibrinogen production. A specificity of at least 100 is preferred.
Primary human hepatocytes were seeded at 50 000 cells/well in 96 well plates. After an overnight adhesion phase, cells were incubated with compounds for 8 hours in RPMI medium containing 1% FCS, 4 μg/ml insulin, 100 nM dexamethasone and 50 μCi/ml ^35S-methionine. […] Production of radiolabeled apoB-100 and apoA-1 (used as a selectivity control) was quantified by analysis of supermatants using SDS AGE and exposure of gels onto Phosphorimager screens. Inhibition of apo-100 and apoA-1 secretion by compounds was calculated taking untreated cells as controls, and IC50 of each compound was determined on both apoproteins.

The structures appear in SMILES notation.

Molecule `Cc1ccc(C(=O)Nc2ccc(N3CCN(Cc4cccc(C#N)c4)CC3)cc2)c(-c2ccc(C(C)C)cc2)c1` [Example 2, 4′-Isopropyl-5-methyl-biphenyl-2-carboxylic Acid [4-[4-(3-cyano-benzyl)-piperazin-1-yl]-phenyl]-amide] registered a melting point of 167 to 169 °C. In addition, the IC50 with apoB-100 (Homo sapiens, Hepatocyte, 8 h) turned out to be 18 nM.

Consider `COc1cccc(C(=O)Nc2ccc(N3CCN(Cc4cccc(C#N)c4)CC3)cc2)c1-c1ccc(C(C)C)cc1` [Example 3, 4′-Isopropyl-6-methoxy-biphenyl-2-carboxylic Acid [4-[4-(3-cyano-benzyl)-piperazin-1-yl]-phenyl]-amide], for which the melting point was found to be 179 °C. Moreover, in the data set on apoB-100, the half-inhibitory concentration (IC50) was determined as 13 nM. The IC50 in the data set on apoB-100 (Homo sapiens, Hepatocyte, 8 h) was determined as 18 nM.

For the molecule `Cc1cccc(C(=O)Nc2ccc(N3CCN(Cc4cccc(C#N)c4)CC3)cc2)c1-c1ccc(C(C)C)cc1` [Example 4], in the data set on apoB-100, the concentration for half-maximal inhibition (IC50) is 12 nM.

Turning to `Cc1cccc(C(=O)Nc2ccc(N3CCN(Cc4cccc(C#N)c4)CC3)cc2)c1-c1ccc(C(F)(F)F)cc1` [Example 5, 6-Methyl-4′-trifluoromethyl-biphenyl-2-carboxylic Acid [4-[4-(3-cyano-benzyl)-piperazin-1-yl]-phenyl]-amide], the melting point amounted to 192 °C. Moreover, 15 nM corresponded to half-maximal inhibition in the data set on apoB-100 (Homo sapiens, Hepatocyte, 8 h) (IC50).

Turning to `Cc1ccc(C(=O)Nc2ccc(N3CCN(Cc4cccc(-c5nc(C)no5)c4)CC3)cc2)c(-c2ccc(C(C)C)cc2)c1` [Example 6], the half-maximal inhibitory concentration (IC50) in the data set on apoB-100 is 18 nM.

In turn, `COC(=O)c1cccc(CN2CCN(c3ccc(NC(=O)c4ccccc4-c4ccc(C(F)(F)F)cc4)cc3)CC2)c1` [Example 55, 4′-Trifluoromethyl-biphenyl-2-carboxylic acid [4-[4-(3-carbomethoxy-benzyl)-piperazin-1-yl]-phenyl]-amide] yielded a melting point of 190 to 192 °C.

In turn, `O=C(Nc1ccc(N2CCN(Cc3cnccn3)CC2)cc1)c1ccccc1-c1ccc(C(F)(F)F)cc1` [Example 58, 4′-Trifluoromethyl-biphenyl-2-carboxylic acid [4-(4-pyrazin-2-ylmethyl-piperazin-1-yl)-phenyl]-amide] displayed a melting point of 183 to 185 °C.

On to `Cn1ccnc1CN1CCN(c2ccc(NC(=O)c3ccccc3-c3ccc(C(F)(F)F)cc3)cc2)CC1` [Example 60, 4′-Trifluoromethyl-biphenyl-2-carboxylic acid [4-[4-(1-methyl-1H-imidazol-2-ylmethyl)-piperazin-1-yl)-phenyl]-amide], for which the melting point is 118 to 120 °C.

In turn, `O=C(Nc1ccc(N2CCN(Cc3ccc[nH]3)CC2)cc1)c1ccccc1-c1ccc(C(F)(F)F)cc1` [Example 62, 4′-Trifluormethyl-biphenyl-2-carboxylic Acid [4-(4-(1H-pyrrol-2-ylmethyl)-piperazin-1-yl)-phenyl)-amide] had a 50% inhibitory concentration (IC50) in the data set with apoB-100 of 10 nM.

For `Cc1ccc(C(=O)Nc2ccc(N3CCN(Cc4ccc[nH]4)CC3)cc2)c(-c2ccc(C(C)C)cc2)c1` [Example 63, 4′-Isopropyl-5-methyl-biphenyl-2-carboxylic Acid [4-(4-(1H-pyrrol-2-ylmethyl)-25 piperazin-1-yl)-phenyl]-amide], in the data set with apoB-100, the IC50 stood at 20 nM.

In turn, `Cc1ccc(C(=O)Nc2ccc(N3CCN(Cc4ccc[nH]4)CC3)cc2)c(-c2ccc(C(F)(F)F)cc2)c1` [Example 64, 5-Methyl-4′-trifluoromethyl-biphenyl-2-carboxylic Acid [4-(4-(1H-pyrrol-2-ylmethyl)-piperazin-1-yl)-phenyl]-amide] gave a melting point of 196 to 198 °C. In the data set with apoB-100 (Homo sapiens, Hepatocyte, 8 h), this molecule yielded an IC50 of 19 nM.

`CCCN1CCN(c2ccc(NC(=O)c3ccccc3-c3ccc(C(F)(F)F)cc3)cc2)CC1` [Example 65, 4′-Trifluoromethyl-biphenyl-2-carboxylic acid [4-(4-propyl-piperazin-1-yl)-phenyl]-amide] returned a melting point of 207 to 209 °C.

`CC(=O)c1cccc(CN2CCN(c3ccc(NC(=O)c4ccccc4-c4ccc(C(F)(F)F)cc4)cc3)CC2)c1` [Example 66, 4′-Trifluoromethyl-biphenyl-2-carboxylic acid [4-(4-(3-acetyl-benzyl)-piperazin-1-yl)-phenyl]-amide] came in with a melting point of 181 to 183 °C.

`O=C(Nc1ccc(N2CCN(Cc3ccco3)CC2)cc1)c1ccccc1-c1ccc(C(F)(F)F)cc1` [Example 67, 4′-Trifluoromethyl-biphenyl-2-carboxylic acid [4-(4-furan-2-ylmethyl-piperazin-1-yl)-phenyl]-amide]: the melting point was in the range of 173 to 175 °C.

As for `COc1cccc(C(=O)Nc2ccc(N3CCN(Cc4ccc[nH]4)CC3)cc2)c1-c1ccc(C(C)C)cc1` [Example 68, 4′-Isopropyl-6-methoxy-biphenyl-2-carboxylic acid [4-(4-(1H-pyrrol-2-ylmethyl)-piperazin-1-yl)-phenyl]-amide], the melting point fell in the range of 195 to 197 °C.

In turn, `O=C(Nc1ccc(N2CCN(Cc3cccs3)CC2)cc1)c1ccccc1-c1ccc(C(F)(F)F)cc1` [Example 70, 4′-Trifluoromethyl-biphenyl-2-carboxylic acid [4-(4-thiophen-2-ylmethyl-piperazin-1-yl)-phenyl]-amide] showed a melting point of 181 to 183 °C.

As for `O=C(Nc1ccc(N2CCN(Cc3cc[nH]n3)CC2)cc1)c1ccccc1-c1ccc(C(F)(F)F)cc1` [Example 71, 4′-Trifluoromethyl-biphenyl-2-carboxylic acid {4-[4-(1H-pyrazole-3-ylmethyl)-piperazine-1-yl]-phenyl}-amide], the melting point lay within 194 to 196 °C.

The molecule `O=C(Nc1ccc(N2CCN(Cc3c[nH]c4ccc(F)cc34)CC2)cc1)c1ccccc1-c1ccc(C(F)(F)F)cc1` [Example 73, 4′-Trifluoromethyl-biphenyl-2-carboxylic acid {4-[4-(5-fluoro-1H-indol-3-ylmethyl)-piperazin-1-yl]-phenyl}-amide] yielded a melting point of 168 to 170 °C.

`COc1cccc(C(=O)Nc2ccc(N3CCN(Cc4cccc(-c5nc(C)no5)c4)CC3)cc2)c1-c1ccc(C(C)C)cc1` [Example 74, 4′-Isopropyl-6-methoxy-biphenyl-2-carboxylic acid (4-(4-(3-(3-methyl-[1,2,4]oxadiazol-5-yl)-benzyl)-piperazine-1-yl)-phenyl)-amide]: the melting point is 180 to 182 °C.

`O=C(Nc1ccc(N2CCN(Cc3cccc(-c4noc(C(F)(F)F)n4)c3)CC2)cc1)c1ccccc1-c1ccc(C(F)(F)F)cc1` [Example 75, 4′-Trifluoromethyl-biphenyl-2-carboxylic acid (4-{4-[3-(5-trifluoromethyl-[1,2,4]oxadiazol-3-yl)-benzyl]-piperazin-1-yl}-phenyl)-amide] came in with a melting point of 188 to 190 °C.

On to `O=C(CN1CCN(c2ccc(NC(=O)c3ccccc3-c3ccc(C(F)(F)F)cc3)cc2)CC1)NCc1cccc(-c2ccccc2)c1` [Example 77, 4′-Trifluoromethyl-biphenyl-2-carboxylic Acid [4-(4{[(biphenyl-3-ylmethyl)-carbamoyl]-methyl}piperazin-1-yl)-phenyl]-amide], for which the melting point was in the range of 165 to 167 °C.

`O=C(NCC(F)(F)F)c1cccc(CN2CCN(c3ccc(NC(=O)c4ccccc4-c4ccc(C(F)(F)F)cc4)cc3)CC2)c1` [Example 79, 4′-Trifluoromethyl-biphenyl-2-carboxylic Acid (4-{4-[3-(2,2,2-trifluoro-ethylcarbamoyl)-benzyl]-piperazin-1-yl}-phenyl)-amide] came in with a melting point of 205 to 207 °C.

In turn, `N#Cc1cccc(C(=O)N2CCN(c3ccc(NC(=O)c4ccccc4-c4ccc(C(F)(F)F)cc4)cc3)CC2)c1` [Example 80, 4′-Trifluoromethyl-biphenyl-2-carboxylic Acid [4-[4-(3-cyano-benzoyl)-piperazin-1-yl]-phenyl]-amide] yielded a melting point of 178.5 to 180 °C.

The molecule `CC(=O)N1CCN(c2ccc(NC(=O)c3ccccc3-c3ccc(C(F)(F)F)cc3)cc2)CC1` [Example 81, 4′-Trifluoromethyl-biphenyl-2-carboxylic Acid [4-(4-acetyl-piperazin-1-yl)-phenyl]-amide] returned a melting point of 175 to 176.5 °C.

In the case of `N#Cc1cccc(S(=O)(=O)N2CCN(c3ccc(NC(=O)c4ccccc4-c4ccc(C(F)(F)F)cc4)cc3)CC2)c1` [Example 82, 4′-Trifluoromethyl-biphenyl-2-carboxylic Acid [4-[4-(3-cyano-benzenesulfonyl)-piperazin-1-yl]-phenyl]-amide], the melting point was 223 °C.

Regarding `CS(=O)(=O)N1CCN(c2ccc(NC(=O)c3ccccc3-c3ccc(C(F)(F)F)cc3)cc2)CC1` [Example 83, 4′-Trifluoromethyl-biphenyl-2-carboxylic Acid [4-(4-methanesulfonyl-piperazin-1-yl)-phenyl]-amide], the melting point lay within 254 to 256 °C.

`N#Cc1cccc(CN2CCC(c3ccc(NC(=O)c4ccccc4-c4ccc(C(F)(F)F)cc4)cc3)CC2)c1` [Example 84, 4′-Trifluoromethyl-biphenyl-2-carboxylic Acid (4-[1-(3-cyano-benzyl)-piperidin-4-yl]-phenyl]-amide]: the melting point was 124 to 126 °C.

With `N#Cc1cccc(CN2CCN(c3ccc(NC(=O)c4ccccc4-n4cccc4)cc3)CC2)c1` [Example 85, N-{4-[4-(3-Cyano-benzyl)-piperazin-1-yl]-phenyl}-2-pyrrol-1-yl-benzamide], the melting point came out at 174 °C.

The molecule `N#Cc1cccc(CN2CCN(c3ccc(NC(=O)c4ccccc4-c4ccccn4)cc3)CC2)c1` [Example 86, N-{4-[4-(3-Cyano-benzyl)-piperazin-1-yl]-phenyl}-2-pyridin-2-yl-benzamide] had a melting point of 169 to 171 °C.

A word on the IC50: it is the concentration needed to halve the response being measured. Higher therefore signals a need for much substance. Broadly, the melting point is the temperature of the solid-liquid transition.
